Source: patent EP0765662A1, “HIV GROWTH INHIBITORY COMPOSITION” (Kochi, Mutsuyuki, priority 1994, dated 1995)

Test system: HIVBRU
Assay: HIV-p24 antigen released from HIV-infected A3.01 cells stimulated with TNF-α
Assay type: cell-based
Settings: AZT 2 µg/ml in place of SBA, HIV-infected A3.01 cells
Source text: In view of all these test results, it appears that the inhibitory activity of SBA against the replication of HIV-1 is not attributable to that SBA directly acts on HIV so as to make lose the infectivity (infectious power) of HIV. (c) Test of examining the inhibitory activity of SBA against such replication of the viral particles of HIV which is induced when a tumor necrosis factor (TNF-α) is introduced into the HIV-infected A3.01 cells AIDS virus, HIVBRU (its reverse transcriptase activity, 0.03 cpm/cell) and 6 x 10^6 cells of the A3.01 cell (HAT-susceptible CEM cell strain) were mixed and reacted together in a culture medium at 37°C for 1 hour, and thereafter the mixed cells were washed with PBS to remove the excess of the particles of HIV virus therefrom. The A3.01 cells (5 x 10^5 cells) which had been so infected with HIV were then cultivated in various culture media containing TNF-α and SBA at different concentrations of them. The amount of the HIV-p24 antigen (an HIV-structural protein of HIV) which was released in the culture supernatant from the cultivated cells under test was periodically measured during the period of between 0 day to 5th day of the cultivation. The culture medium used for the above-mentioned cultivation of the A3.01 cells was an RPM1-1640 medium comprising 10% of heat-treated embryonic bovine serum, and minor amounts of penicillin, streptomycin, glutamine and mercaptoethanol. The amount of the HIV-p24 antigen produced was measured with lapse of time, and the relationship of the amount of the HIV-p24 antigen to the concentration of SBA is summarily tabulated in Table 4 below.
In the tests above, the replication of the viral particles of HIV was examined in terms of the amount of the p24 antigen protein produced and appearing in the culture supernatant from the cultivated cells. Thus, the amount of the p24 antigen produced was measured periodically over 6 days after the A3.01 cells were infested with HIV. It was then observed that in the absence of SBA, the replication of the viral particles of HIV was induced in the A3.01 cells by stimulation with 10 units/ml of TNF-α added. […] Thus, the effective amount of SBA has the activity to inhibit the replication of the viral particles of HIV within the cells to an extent as same as AZT, and from this it is expected that SBA is useful similarly to AZT for the therapeutic treatments of AIDS. (d) Tests for evaluating an inhibitory activity of SBA to the formation of giant cells from HIV-infected Molt-4 cells In a similar manner to that in the above Test (c), Molt-4 cells (a CD4-positive human T-cell strain) were infected with AIDS virus, HIVBRU. Thereafter, The HIV-infected Molt-4 cells were mixed with such Molt-4 cells which had no HIV-infection. And the mixture of these cells were cultivated at a high density of the mixed cells in the above-mentioned improved RPM1-1640 medium containing SBA at its different concentrations. Whereupon, there was examined the presence of cell-fused cell(s) (namely, the giant cells) which were formed by fusion of the HIV-infected cells with each other or by fusion of the HIV-infected cells with the HIV-non-infected cells. The formation and appearance of the giant cells was confirmed by microscopic observation. The size of such giant cells is clearly different from the size of the other usual cells. […] Namely, it is shown that SBA has an anti-HIV activity. […] In the initial stage of the transcription of HIV-1 gene, said NFkB, i.e. the transcription regulating factor of the host cells, plays an important role. […] NFkB is known to be a complex protein which is composed by the association of a molecule of protein having a molecular weight of about 50,000 (p50) with a molecule of protein having a molecular weight of about 65,000 (p65). […]

Measured: Amount of the HIV p24 antigen

Cc1cn([C@H]2C[C@H](N=[N+]=[N-])[C@@H](CO)O2)c(=O)[nH]c1=O [AZT, azidothymidine, reference compound]
0 pg/mL: 0th day | 1st day | 2nd day | 3rd day | 4th day | 5th day
